# According to ChEMBL document CHEMBL1123556, “Synthesis of antimicrobial agents. 1. Syntheses and antibacterial activities of 7-(azole substituted)quinolones” (J Med Chem, 1987):
# Experiments:
# Bacillus subtilis = experiment: In vitro antibacterial activity against Bacillus subtilis ATCC 6633; format: functional
# Klebsiella pneumoniae [1] = experiment: microbe, parasite or virus in culture; format: functional
# Proteus vulgaris = experiment: In vitro antibacterial activity against Proteus vulgaris HX-19; format: functional
# Pseudomonas aeruginosa = experiment: In vitro antibacterial activity against Pseudomonas aeruginosa IFO 3445; format: functional
# Salmonella paratyphi [2] = experiment: microbe, parasite or virus in culture; format: functional, Salmonella enterica subsp. enterica serovar Paratyphi A; settings: Salmonella enterica
# [3] = system: Staphylococcus epidermidis; experiment: microbe, parasite or virus in culture; format: functional
# Escherichia coli = experiment: In vitro antibacterial activity against Escherichia coli NIHJ JC-2; format: functional
# Staphylococcus aureus = experiment: In vitro antibacterial activity against Staphylococcus aureus FDA 209P JC-1; format: functional
# [4] = Concentrations in serum after 120 minutes at 50 mg / kg oral administration; format: ADME, cell-free
# [5] = Concentrations in serum after 240 minutes at 50 mg / kg oral administration; format: ADME
# [6] = Concentrations in serum after 30 minutes at 50 mg / kg oral administration; format: ADME, cell-free
# [7] = Concentrations in serum after 60 minutes at 50 mg / kg oral administration; format: ADME, cell-free
# [8] = Total serum concentrations at 0 to 4 hours interval was determined by 50 mg / kg oral administration; format: ADME, cell-free
# Mus musculus [9] = experiment: In vivo antibacterial activity against Escherichia coli (KC-14) was determined for the compound administered perorally; format: functional; settings: po
# Mus musculus [10] = experiment: In vivo antibacterial activity against Escherichia coli (KC-14) was determined for the compound administered perorally; Value ranges from 2.4-4.7; format: functional; settings: po
# [11] = In vivo acute toxicity against Escherichia coli (KC-14) was determined for the compound administered intravenously; format: organism-based; settings: mouse, iv
# [12] = In vivo acute toxicity against Escherichia coli (KC-14) was determined for the compound administered orally; format: organism-based; settings: mouse, po
# Mus musculus [13] = experiment: In vivo antibacterial activity against Escherichia coli (KC-14) was determined for the compound administered perorally; Value ranges from […]-[…]; format: functional; settings: po
# Mus musculus [14] = experiment: In vivo antibacterial activity against Escherichia coli (KC-14) was determined for the compound administered perorally; Value ranges from 4.8-9.4; format: functional; settings: po
# [15] = In vivo acute toxicity against Escherichia coli (KC-14) was determined for the compound administered perorally; format: organism-based; settings: mouse, po
# Klebsiella pneumoniae [16] = experiment: In vitro antibacterial activity against Klebsiella pneumoniae PCI-602; format: functional
# Salmonella paratyphi [17] = experiment: In vitro antibacterial activity against Salmonella paratyphi 1015; format: functional, Salmonella enterica subsp. enterica serovar Paratyphi A; settings: Salmonella enterica
# [18] = system: Staphylococcus epidermidis; experiment: In vitro antibacterial activity against Staphylococcus epidermidis IAM 1576; format: functional
# Mus musculus [19] = experiment: In vivo antibacterial activity against Escherichia coli (KC-14) was determined for the compound administered perorally; Value ranges from 3.3-5.0; format: functional; settings: po
SMILES,MIC (Bacillus subtilis),MIC (Klebsiella pneumoniae [1]),MIC (Proteus vulgaris),MIC (Pseudomonas aeruginosa),MIC (Salmonella paratyphi [2]),MIC [3],MIC (Escherichia coli),MIC (Staphylococcus aureus),further results
CCn1cc(C(=O)O)c(=O)c2cc(F)c(-n3cnc(CO)c3)c(F)c21,6.25 µg/mL,0.78 µg/mL,0.78 µg/mL,25 µg/mL,0.39 µg/mL,25 µg/mL,6.25 µg/mL,25 µg/mL,–
CCn1cc(C(=O)O)c(=O)c2cc(F)c(-n3cccc3)cc21 [IRLOXACIN],0.05 µg/mL,0.2 µg/mL,0.1 µg/mL,12.5 µg/mL,0.1 µg/mL,1.56 µg/mL,3.13 µg/mL,0.39 µg/mL,concentration at 2 h [4]: 840 ng/mL; concentration at 4 h [5]: 550 ng/mL; concentration at 0.5 h [6]: 5530 ng/mL; concentration at 1 h [7]: 2200 ng/mL; Concentration in serum [8]: 6800 ng/mL; ED50 (Mus musculus [9]): 50 mg/kg
CCn1cc(C(=O)O)c(=O)c2cc(F)c(-n3cnc([N+](=O)[O-])c3)c(F)c21,0.39 µg/mL,0.39 µg/mL,3.13 µg/mL,25 µg/mL,1.56 µg/mL,6.25 µg/mL,6.25 µg/mL,1.56 µg/mL,–
CCn1cc(C(=O)O)c(=O)c2cc(F)c(-n3cnc(/C=N/O)c3)c(F)c21,0.78 µg/mL,0.39 µg/mL,0.78 µg/mL,25 µg/mL,0.39 µg/mL,25 µg/mL,6.25 µg/mL,3.13 µg/mL,–
CCn1cc(C(=O)O)c(=O)c2cc(F)c(-n3cnc(C)c3)c(F)c21,–,–,–,–,–,–,–,–,concentration at 2 h [4]: 10000 ng/mL; concentration at 4 h [5]: 6300 ng/mL; concentration at 0.5 h [6]: 49200 ng/mL; concentration at 1 h [7]: 29400 ng/mL; Concentration in serum [8]: 67900 ng/mL; ED50 (Mus musculus [10]): 3.3 mg/kg; LD50 [11]: 593 mg/kg; LD50 [12]: 4000 mg/kg
CCn1cc(C(=O)O)c(=O)c2cc(F)c(-n3cccn3)cc21,0.78 µg/mL,0.78 µg/mL,0.39 µg/mL,25 µg/mL,0.39 µg/mL,25 µg/mL,12.5 µg/mL,6.25 µg/mL,–
CCn1cc(C(=O)O)c(=O)c2cc(F)c(-n3ccnc3)c(OC)c21,0.1 µg/mL,0.1 µg/mL,0.1 µg/mL,25 µg/mL,0.1 µg/mL,1.56 µg/mL,1.56 µg/mL,0.39 µg/mL,–
CCn1cc(C(=O)O)c(=O)c2cc(F)c(-n3cccc3)c(F)c21,0.05 µg/mL,0.2 µg/mL,0.1 µg/mL,12.5 µg/mL,0.2 µg/mL,1.56 µg/mL,3.13 µg/mL,0.39 µg/mL,concentration at 2 h [4]: 3230 ng/mL; concentration at 4 h [5]: 1650 ng/mL; concentration at 0.5 h [6]: 10700 ng/mL; concentration at 1 h [7]: 7070 ng/mL; Concentration in serum [8]: 17200 ng/mL; ED50 (Mus musculus [13]): 11.7 mg/kg
CCn1cc(C(=O)O)c(=O)c2cc(F)c(N3CCNCC3)cc21 [NORFLOXACIN],–,–,–,–,–,–,–,–,concentration at 2 h [4]: 400 ng/mL; concentration at 4 h [5]: 360 ng/mL; concentration at 0.5 h [6]: 1050 ng/mL; concentration at 1 h [7]: 690 ng/mL; Concentration in serum [8]: 2000 ng/mL; ED50 (Mus musculus [14]): 6.7 mg/kg; LD50 [11]: 327 mg/kg; LD50 [12]: 4000 mg/kg
CCn1cc(C(=O)O)c(=O)c2cc(F)c(N3CCNCC3)c(F)c21,–,–,–,–,–,–,–,–,LD50 [11]: 193 mg/kg; LD50 [15]: 1070 mg/kg
CCn1cc(C(=O)O)c(=O)c2cc(F)c(-n3cnc4ccccc43)c(F)c21,0.05 µg/mL,0.39 µg/mL,0.78 µg/mL,12.5 µg/mL,0.78 µg/mL,1.56 µg/mL,1.56 µg/mL,0.2 µg/mL,–
CCn1cc(C(=O)O)c(=O)c2cc(F)c(-n3cnnc3)cc21,25 µg/mL,12.5 µg/mL,25 µg/mL,25 µg/mL,3.13 µg/mL,25 µg/mL,25 µg/mL,25 µg/mL,–
CCn1cc(C(=O)O)c(=O)c2cc(F)c(-n3cnc4c3CCCC4)c(F)c21,0.39 µg/mL,1.56 µg/mL,3.13 µg/mL,25 µg/mL,6.25 µg/mL,6.25 µg/mL,12.5 µg/mL,1.56 µg/mL,–
CCn1cc(C(=O)O)c(=O)c2cc(F)c(-n3ccnc3C)c(F)c21,0.78 µg/mL,0.39 µg/mL,0.2 µg/mL,25 µg/mL,0.39 µg/mL,25 µg/mL,3.13 µg/mL,6.25 µg/mL,–
CCn1cc(C(=O)O)c(=O)c2cc(F)c(-n3cnc(C(=O)OC)c3)c(F)c21,12.5 µg/mL,3.13 µg/mL,1.56 µg/mL,25 µg/mL,3.13 µg/mL,25 µg/mL,25 µg/mL,25 µg/mL,–
CCn1cc(C(=O)O)c(=O)c2cc(F)c(-n3cnc(Br)c3)c(F)c21,0.2 µg/mL,–,0.2 µg/mL,25 µg/mL,–,–,1.56 µg/mL,0.78 µg/mL,MIC (Klebsiella pneumoniae [16]): 0.2 µg/mL; MIC (Salmonella paratyphi [17]): 0.2 µg/mL; MIC [18]: 6.25 µg/mL
CCn1cc(C(=O)O)c(=O)c2cc(F)c(-n3cnc(CN(C)C)c3)c(F)c21,6.25 µg/mL,3.13 µg/mL,6.25 µg/mL,25 µg/mL,6.25 µg/mL,25 µg/mL,25 µg/mL,6.25 µg/mL,–
CCn1cc(C(=O)O)c(=O)c2cc(F)c(-n3ccnc3)c(SC)c21,0.39 µg/mL,0.39 µg/mL,0.39 µg/mL,25 µg/mL,0.39 µg/mL,12.5 µg/mL,6.25 µg/mL,3.13 µg/mL,–
CCn1cc(C(=O)O)c(=O)c2cc(F)c(-n3ccnc3)cc21,0.78 µg/mL,0.2 µg/mL,0.2 µg/mL,12.5 µg/mL,0.1 µg/mL,25 µg/mL,1.56 µg/mL,6.25 µg/mL,concentration at 2 h [4]: 1100 ng/mL; concentration at 0.5 h [6]: 4200 ng/mL; concentration at 1 h [7]: 2300 ng/mL; Concentration in serum [8]: 5500 ng/mL; ED50 (Mus musculus [9]): 50 mg/kg
CCn1cc(C(=O)O)c(=O)c2cc(F)c(-n3cnc(C(=O)N(C)C)c3)c(F)c21,6.25 µg/mL,1.56 µg/mL,3.13 µg/mL,25 µg/mL,3.13 µg/mL,25 µg/mL,25 µg/mL,12.5 µg/mL,–
CCn1cc(C(=O)O)c(=O)c2cc(F)c(-n3cnc(C=O)c3)c(F)c21,0.78 µg/mL,–,0.2 µg/mL,25 µg/mL,–,–,0.78 µg/mL,3.13 µg/mL,MIC (Klebsiella pneumoniae [16]): 0.2 µg/mL; MIC (Salmonella paratyphi [17]): 0.2 µg/mL; MIC [18]: 25 µg/mL
CCn1cc(C(=O)O)c(=O)c2cc(F)c(-n3ccnc3)c(F)c21,–,–,–,–,–,–,–,–,concentration at 2 h [4]: 7600 ng/mL; concentration at 4 h [5]: 1700 ng/mL; concentration at 0.5 h [6]: 44800 ng/mL; concentration at 1 h [7]: 39300 ng/mL; Concentration in serum [8]: 64900 ng/mL; ED50 (Mus musculus [19]): 4 mg/kg; LD50 [11]: 773 mg/kg; LD50 [12]: 4000 mg/kg
